In ChEMBL document CHEMBL4732115, “Discovery of novel cell-penetrating and tumor-targeting peptide-drug conjugate (PDC) for programmable delivery of paclitaxel and cancer treatment” (Eur J Med Chem, 2021):
pIC50: −log10 of the molar value. Calls of active or inactive are those of the source. The rule behind the calls is not given here.

How the values were obtained:
[1] = Neurotoxicity in BALB/c mouse assessed as change in acetylcholine level at 12 umol/kg, ip administered every two days for 14 days measured post last dose by LC-MS analysis; type: toxicity, organism-based; conditions: in vivo, 336 h, dose 12 µmol/kg, time 14 day
[2] = Neurotoxicity in BALB/c mouse assessed as change in glutamine level at 12 umol/kg, ip administered every two days for 14 days measured post last dose by LC-MS analysis; type: toxicity, organism-based; conditions: in vivo, 336 h, dose 12 µmol/kg, time 14 day
[3] = Drug uptake in tumor of BALB/c nude mouse xenografted with human MCF7 cells at 8 to 12 umol/kg, ip measured after 2 hrs by LC-MS analysis; type: ADME, organism-based, Neoplasm; conditions: in vivo, dose 8-12 µmol/kg
[4] = system: MCF7; test: Cell cycle arrest in human MCF7 cells assessed as increase in accumulation at G2/M-phase at IC50 measured after 4 hrs by […] flow cytometry; type: functional
[5] = system: A2780; test: Cytotoxicity against human A2780 cells assessed as reduction in cell viability measured after 48 hrs by MTT assay; type: functional, cell-based; conditions: A2780, 48 h
[6] = Neurotoxicity in BALB/c mouse assessed as change in serotonin level at 12 umol/kg, ip administered every two days for 14 days measured post last dose by LC-MS analysis; type: toxicity, organism-based; conditions: in vivo, 336 h, dose 12 µmol/kg, time 14 day
[7] = Neurotoxicity in BALB/c mouse assessed as increase in pain sensitivity at 12 umol/kg, ip administered every two days for 14 days by cold water tail immersion test; type: toxicity, organism-based; conditions: in vivo, 336 h, dose 12 µmol/kg, time 14 day
[8] = Neurotoxicity in BALB/c mouse assessed as increase in pain sensitivity at 12 umol/kg, ip administered every two days for 14 days by hot water tail immersion test; type: toxicity, organism-based; conditions: in vivo, 336 h, dose 12 µmol/kg, time 14 day
[9] = system: MCF7; test: Induction of mitochondrial membrane potential loss in human MCF7 cells at IC50 measured after 4 hrs by JC-1 staining based flow cytometry; type: functional, cell-based
[10] = system: MCF7; test: Antitumor activity against human MCF7 cells xenografted in BALB/c nude mouse assessed as reduction in tumor volume at 12 umol/kg, ip administered every two days for two weeks relative to control; type: functional; design: scale not given: the % may be the effect or the level left; conditions: dose 12 µmol/kg; time 2 weeks
[11] = Neurotoxicity in BALB/c mouse assessed as change in noradrenaline level at 12 umol/kg, ip administered every two days for 14 days measured post last dose by LC-MS analysis; type: toxicity, organism-based; conditions: in vivo, 336 h, dose 12 µmol/kg, time 14 day
[12] = system: MCF7; test: Cytotoxicity against human MCF7 cells assessed as reduction in cell viability measured after 48 hrs by MTT assay; type: functional, cell-based; conditions: MCF7, 48 h
[13] = Neurotoxicity in BALB/c mouse assessed as change in glutamate level at 12 umol/kg, ip administered every two days for 14 days measured post last dose by LC-MS analysis; type: toxicity, organism-based; conditions: in vivo, 336 h, dose 12 µmol/kg, time 14 day
[14] = Neurotoxicity in BALB/c mouse assessed as increase in pain sensitivity at 12 umol/kg, ip administered every two days for 14 days by hot-plate test; type: toxicity, organism-based; conditions: in vivo, 336 h, dose 12 µmol/kg, time 14 day
[15] = system: MCF7; test: Induction of apoptosis in human MCF7 cells at IC50 measured after 4 hrs by Annexin-V FITC/propidium iodide staining based flow cytometry; type: functional, cell-based
[16] = Neurotoxicity in BALB/c mouse assessed as change in GABA level at 12 umol/kg, ip administered every two days for 14 days measured post last dose by LC-MS analysis; type: toxicity, organism-based; conditions: in vivo, 336 h, dose 12 µmol/kg, time 14 day
[17] = Neurotoxicity in BALB/c mouse assessed as change in histidine level at 12 umol/kg, ip administered every two days for 14 days measured post last dose by LC-MS analysis; type: toxicity, organism-based; conditions: in vivo, 336 h, dose 12 µmol/kg, time 14 day
[18] = Drug uptake in human MCF7 cells at 20 nM measured after 4 hrs by LC-MS analysis; type: ADME, cell-based; conditions: mcf7, 4 h, 0.02 µM
[19] = Neurotoxicity in BALB/c mouse assessed as change in histamine level at 12 umol/kg, ip administered every two days for 14 days measured post last dose by LC-MS analysis; type: toxicity, organism-based; conditions: in vivo, 336 h, dose 12 µmol/kg, time 14 day
[20] = system: NCM460; test: Cytotoxicity against human NCM460 cells assessed as reduction in cell viability measured after 48 hrs by MTT assay; type: cell-based; conditions: NCM460, 48 h
[21] = system: MCF7; test: Antitumor activity against human MCF7 cells xenografted in BALB/c nude mouse assessed as reduction in tumor weight at 12 umol/kg, ip administered every two days for two weeks relative to control; type: functional; design: scale not given: the % may be the effect or the level left; conditions: dose 12 µmol/kg; time 2 weeks
[22] = Neurotoxicity in BALB/c mouse assessed as change in dopamine level at 12 umol/kg, ip administered every two days for 14 days measured post last dose by LC-MS analysis; type: toxicity, organism-based; conditions: in vivo, 336 h, dose 12 µmol/kg, time 14 day
[23] = system: HEK293; test: Cytotoxicity against HEK293 cells assessed as reduction in cell viability measured after 48 hrs by MTT assay; type: cell-based; conditions: Homo sapiens, HEK293, 48 h
[24] = system: HT-29; test: Cytotoxicity against human HT-29 cells assessed as reduction in cell viability measured after 48 hrs by MTT assay; type: functional, cell-based; conditions: HT-29, 48 h
[25] = Cytotoxicity against human A2780/PTX cells assessed as reduction in cell viability measured after 48 hrs by MTT assay; type: functional, cell-based
[26] = Neurotoxicity in BALB/c mouse assessed as change in vanillylmandelic acid level at 12 umol/kg, ip administered every two days for 14 days measured post last dose by LC-MS analysis; type: toxicity, organism-based; conditions: in vivo, 336 h, dose 12 µmol/kg, time 14 day
[27] = Neurotoxicity in BALB/c mouse assessed as change in DOPAC level at 12 umol/kg, ip administered every two days for 14 days measured post last dose by LC-MS analysis; type: toxicity, organism-based; conditions: in vivo, 336 h, dose 12 µmol/kg, time 14 day

In the case of `CC(=O)O[C@H]1C(=O)[C@@]2(C)[C@H]([C@H](OC(=O)c3ccccc3)[C@]3(O)C[C@H](OC(=O)[C@H](O)[C@@H](NC(=O)c4ccccc4)c4ccccc4)C(C)=C1C3(C)C)[C@]1(OC(C)=O)CO[C@@H]1C[C@@H]2O` [PACLITAXEL], the Activity [1] was “Toxic”, the Activity [2] was “Toxic” and the Drug uptake [3] was “Active”. For the same molecule, the Activity [4] was “Active”, the pIC50 [5] was 7.82 and the Activity [6] was “Toxic”. For the same molecule, the Activity [7] was “Toxic”, the Activity [8] was “Toxic” and the Activity [9] was “Active”. For the same molecule, the Activity [10] was 75.7%, the Activity [11] was “Toxic” and the pIC50 [12] was 8.18. For the same molecule, the Activity [13] was “Toxic”, the Activity [14] was “Toxic” and the Activity [15] was “Active”. The Activity [16] was “Toxic”, the Activity [17] was “Toxic” and the Drug uptake [18] was “Active”. For the same molecule, the Activity [19] was “Toxic”, the pIC50 [20] was 8.04 and the Activity [21] was 65.7%. The Activity [22] was “Toxic”, the pIC50 [23] was 7.79 and the pIC50 [24] was 8.07. The pIC50 [25] was 4.62, the Activity [26] was “Toxic” and the Activity [27] was “Toxic”.

For H-FFRKLKKSV-NH2, the pIC50 [12] was < 4.30 and the pIC50 [24] was < 4.30.

With H-FKKFFRKLK-NH2 the pIC50 [12] was < 4.30 and the pIC50 [24] was < 4.30.

With H-KFFRKLKKS-NH2 the pIC50 [12] was < 4.30 and the pIC50 [24] was < 4.30.

With H-KKFFRKLKK-NH2 the pIC50 [12] was < 4.30 and the pIC50 [24] was < 4.30.

For H-KRFKKFFRK-NH2, the pIC50 [12] was < 4.30 and the pIC50 [24] was < 4.30.

For H-RFKKFFRKL-NH2, the pIC50 [12] was < 4.30 and the pIC50 [24] was < 4.30.

With H-VKRFKKFFR-NH2 the pIC50 [12] was < 4.30 and the pIC50 [24] was < 4.30.

Molecule H-VKRFKKFFRKLKKSV-NH2 has a pIC50 [12] of 4.74 and a pIC50 [24] of 4.82.
